What was measured:
Factor XIa = Factor XIa (Homo sapiens, UniProt P03951); experiment: Factor XIa inhibition assay utilizing a fluorophore-quencher pair peptide substrate (FLINT); format: biochemical; conditions: 11-point, 3-fold serial dilution, top 100 nM; 30 min preincubation; 15 μM 5Fam-KLTRAETV-K5Tamra substrate; kinetic reads over 30 min; read-out: FXIa Inhibition IC50
Summary of the method: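 FXIa ([…]) preincubated 30 min with compound (11-point, 3-fold, top 100 nM, 2% DMSO) in Tris pH 7.5, NaCl, CaCl2, BSA, CHAPS; 15 μM 5Fam-KLTRAETV-K5Tamra substrate then added. Fluorescence (485/520 nm) read kinetically over 30 min at room temperature; IC50 by 4-parameter fit.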

human plasma kallikrein = human plasma kallikrein (Homo sapiens, UniProt P03952); experiment: Kallikrein inhibition assay utilizing a quenched AMC peptide substrate (FLINT); format: biochemical; conditions: 11-point, 3-fold serial dilution, top 1 μM; 30 min preincubation; 2 nM kallikrein; 50 μM Z-Gly-Pro-Arg-AMC; kinetic reads over 30 min
Summary of the method: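 Human plasma kallikrein (2 nM final) was pre-incubated 30 min at room temperature with compound (11-point 3-fold series, top 1 μM, 2% DMSO) in Tris pH 7.5, NaCl, CaCl2, BSA, CHAPS buffer. Reaction started with 50 μM Z-Gly-Pro-Arg-AMC (KM 40 μM), and fluorescence (340/440 nm) was read kinetically over 30 min. IC50 came from a 4-parameter logistic fit.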

human plasma kallikrein, sequence (P03952 391-638 limits assumed): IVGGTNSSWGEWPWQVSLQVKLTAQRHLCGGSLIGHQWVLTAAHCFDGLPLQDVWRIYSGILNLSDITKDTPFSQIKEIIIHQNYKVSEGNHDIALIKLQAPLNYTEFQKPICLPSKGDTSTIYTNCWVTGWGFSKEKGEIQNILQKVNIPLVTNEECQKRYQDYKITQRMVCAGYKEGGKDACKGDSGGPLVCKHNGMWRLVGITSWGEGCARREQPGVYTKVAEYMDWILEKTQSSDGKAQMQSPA
human plasma kallikrein, sequence (P03952 20-390 partner limits assumed): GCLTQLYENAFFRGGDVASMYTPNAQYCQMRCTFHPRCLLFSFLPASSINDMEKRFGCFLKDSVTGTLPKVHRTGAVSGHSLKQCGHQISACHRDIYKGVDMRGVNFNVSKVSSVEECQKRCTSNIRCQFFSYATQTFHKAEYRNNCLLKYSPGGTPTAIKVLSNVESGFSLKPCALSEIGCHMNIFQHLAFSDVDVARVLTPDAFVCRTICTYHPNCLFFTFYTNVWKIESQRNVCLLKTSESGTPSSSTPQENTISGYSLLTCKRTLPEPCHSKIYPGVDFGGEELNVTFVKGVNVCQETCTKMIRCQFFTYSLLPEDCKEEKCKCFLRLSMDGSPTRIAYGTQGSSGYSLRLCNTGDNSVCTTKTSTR
Factor XIa, sequence (P03951 388-625 limits assumed): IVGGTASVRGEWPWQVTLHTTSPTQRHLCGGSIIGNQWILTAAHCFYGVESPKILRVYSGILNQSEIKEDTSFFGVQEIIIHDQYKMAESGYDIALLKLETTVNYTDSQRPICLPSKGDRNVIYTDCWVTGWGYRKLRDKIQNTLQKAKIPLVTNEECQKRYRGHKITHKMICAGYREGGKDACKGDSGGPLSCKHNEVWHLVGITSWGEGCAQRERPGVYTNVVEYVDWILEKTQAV
Factor XIa, sequence (P03951 19-387 partner limits assumed): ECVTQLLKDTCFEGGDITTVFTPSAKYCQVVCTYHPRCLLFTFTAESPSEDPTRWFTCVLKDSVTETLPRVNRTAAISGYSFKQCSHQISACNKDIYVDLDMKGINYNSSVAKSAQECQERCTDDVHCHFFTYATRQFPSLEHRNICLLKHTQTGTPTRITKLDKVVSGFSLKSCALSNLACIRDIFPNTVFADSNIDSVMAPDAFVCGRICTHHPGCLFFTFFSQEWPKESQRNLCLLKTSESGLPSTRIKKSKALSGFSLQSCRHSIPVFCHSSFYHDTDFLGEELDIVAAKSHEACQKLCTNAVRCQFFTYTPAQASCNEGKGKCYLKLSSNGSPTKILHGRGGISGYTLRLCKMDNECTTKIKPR

Row | SMILES | IC50 (Factor XIa) | IC50 (human plasma kallikrein)
1 | Cn1nnnc1-c1ccc(NC(=O)[C@@H]2CCC3CC(c4c(-n5cnnn5)ccc(Cl)c4F)=CC(=O)N32)cc1 (mixture of isomers) [ID No. 70, (3S)-7-[3-Chloro-2-fluoro-6-(tetrazol-1-yl)phenyl]-N-[4-(1-methyltetrazol-5-yl)phenyl]-5-oxo-2,3,8,8a-tetrahydro-1H-indolizine-3-carboxamide] | 84.8 nM | 436 nM
2 | O=C(Nc1ccc(-n2cnnn2)cc1)[C@@H]1CCC2CC(c3c(-n4cnnn4)ccc(Cl)c3F)=CC(=O)N21 (mixture of isomers) [ID No. 73, (3S)-7-[3-Chloro-2-fluoro-6-(tetrazol-1-yl)phenyl]-5-oxo-N-[4-(tetrazol-1-yl)phenyl]-2,3,8,8a-tetrahydro-1H-indolizine-3-carboxamide] | 26.3 nM | 156 nM
3 | O=C(Nc1ccc(-c2ncc[nH]2)cc1)[C@@H]1CCC2CC(c3c(-n4cnnn4)ccc(Cl)c3F)=CC(=O)N21 (mixture of isomers) [ID No. 74, (3S)-7-[3-Chloro-2-fluoro-6-(tetrazol-1-yl)phenyl]-N-[4-(1H-imidazol-2-yl)phenyl]-5-oxo-2,3,8,8a-tetrahydro-1H-indolizine-3-carboxamide] | 2 nM | 40.7 nM
4 | O=C(Nc1ccc(-c2n[nH]c(=O)o2)cc1)[C@@H]1CCC2CC(c3c(-n4cnnn4)ccc(Cl)c3F)=CC(=O)N21 (mixture of isomers) [ID No. 75, (3S)-7-[3-Chloro-2-fluoro-6-(tetrazol-1-yl)phenyl]-5-oxo-N-[4-(2-oxo-3H-1,3,4-oxadiazol-5-yl)phenyl]-2,3,8,8a-tetrahydro-1H-indolizine-3-carboxamide] | 1.8 nM | 11.2 nM
5 | Cn1cnc(-c2ccc(NC(=O)[C@@H]3CCC4CC(c5c(-n6cnnn6)ccc(Cl)c5F)=CC(=O)N43)cc2)n1 (mixture of isomers) [ID No. 77, (3S)-7-[3-Chloro-2-fluoro-6-(tetrazol-1-yl)phenyl]-N-[4-(1-methyl-1,2,4-triazol-3-yl)phenyl]-5-oxo-2,3,8,8a-tetrahydro-1H-indolizine-3-carboxamide] | 8 nM | 63.5 nM
6 | CC1C[C@@H](C(=O)Nc2ccc3nn(C)cc3c2)N2C(=O)C=C(c3c(-n4cnnn4)ccc(Cl)c3F)CC12 (mixture of isomers) [ID No. 83, (3S)-7-[3-Chloro-2-fluoro-6-(tetrazol-1-yl)phenyl]-1-methyl-N-(2-methyl-2H-indazol-5-yl)-5-oxo-2,3,8,8a-tetrahydro-1H-indolizine-3-carboxamide] | 17.8 nM | 27 nM
7 | CC1C[C@@H](C(=O)Nc2ccc3n[nH]cc3c2)N2C(=O)C=C(c3c(-n4cnnn4)ccc(Cl)c3F)CC12 (mixture of isomers) [ID No. 84, (3S)-7-[3-Chloro-2-fluoro-6-(tetrazol-1-yl)phenyl]-N-(2H-indazol-5-yl)-1-methyl-5-oxo-2,3,8,8a-tetrahydro-1H-indolizine-3-carboxamide] | 19.3 nM | 27.8 nM
8 | CC1C[C@@H](C(=O)Nc2ccc3nccnc3c2)N2C(=O)C=C(c3c(-n4cnnn4)ccc(Cl)c3F)CC12 (mixture of isomers) [ID No. 85, (3S)-7-[3-Chloro-2-fluoro-6-(tetrazol-1-yl)phenyl]-1-methyl-5-oxo-N-quinoxalin-6-yl-2,3,8,8a-tetrahydro-1H-indolizine-3-carboxamide] | 9.9 nM | 12.2 nM
9 | C[C@@H](O)c1cnc2cc(NC(=O)[C@@H]3CCC4CC(c5c(-n6cnnn6)ccc(Cl)c5F)=CC(=O)N43)ccc2n1 (relative stereo) [ID No. 1, (3S*)-7-(3-chloro-2-fluoro-6-(1H-tetrazol-1-yl)phenyl)-N-(2-((R*)-1-hydroxyethyl)quinoxalin-6-yl)-5-oxo-1,2,3,5,8,8a-hexahydroindolizine-3-carboxamide] | 5 nM | 9.7 nM
10 | C[C@@H](O)c1cnc2cc(NC(=O)[C@@H]3CCC4CC(c5c(-n6cnnn6)ccc(Cl)c5F)=CC(=O)N43)ccc2n1 (single isomer, unassigned) [ID No. 2] | 6.4 nM | 11.3 nM
11 | COCCn1cc2cc(NC(=O)C3CCC4CC(c5c(-n6cnnn6)ccc(Cl)c5F)=CC(=O)N43)ccc2n1 (single isomer, unassigned) [ID No. 3, (3S*)-7-(3-chloro-2-fluoro-6-(1H-tetrazol-1-yl)phenyl)-N-(2-(2-methoxyethyl)-2H-indazol-5-yl)-5-oxo-1,2,3,5,8,8a-hexahydroindolizine-3-carboxamide] | 6 nM | 35.6 nM
12 | COCCNC(=O)c1ccc(NC(=O)[C@@H]2CC[C@@H]3CC(c4c(-n5cnnn5)ccc(Cl)c4F)=CC(=O)N32)cc1F (single isomer, unassigned) [ID No. 5, (3S,8aR*)-7-(3-chloro-2-fluoro-6-(1H-tetrazol-1-yl)phenyl)-N-(3-fluoro-4-((2-methoxyethyl)carbamoyl)phenyl)-5-oxo-1,2,3,5,8,8a-hexahydroindolizine-3-carboxamide] | 15.5 nM | 128 nM
13 | O=C(Nc1ccc2nn(C(F)F)cc2c1)[C@@H]1CCC2CC(c3c(-n4cnnn4)ccc(Cl)c3F)=CC(=O)N21 (single isomer, unassigned) [ID No. 22, (3S,8aS*)-7-(3-Chloro-2-fluoro-6-(1H-tetrazol-1-yl)phenyl)-N-(2-(difluoromethyl)-2H-indazol-5-yl)-5-oxo-1,2,3,5,8,8a-hexahydroindolizine-3-carboxamide] | 4.2 nM | 19.3 nM
14 | O=C(Nc1ccc2nn(C(F)F)cc2c1)[C@@H]1CC[C@@H]2CC(c3c(-n4cnnn4)ccc(Cl)c3F)=CC(=O)N21 (single isomer, unassigned) [ID No. 23] | 8.3 nM | 31.1 nM
15 | O=C(Nc1ccc(-c2nc(=O)o[nH]2)c(F)c1)[C@@H]1CC[C@H]2CC(c3c(-n4cnnn4)ccc(Cl)c3F)=CC(=O)N21 (single isomer, unassigned) [ID No. 36, (3S,8aS*)-7-(3-Chloro-2-fluoro-6-(1H-tetrazol-1-yl)phenyl)-N-(3-fluoro-4-(5-oxo-2,5-dihydro-1,2,4-oxadiazol-3-yl)phenyl)-5-oxo-1,2,3,5,8,8a-_hexahydroindolizine-3-carboxamide] | 0.4 nM | 8.8 nM
16 | O=C(O)c1ccc(NC(=O)[C@@H]2CC[C@@H]3CC(c4c(-n5cnnn5)ccc(Cl)c4F)=CC(=O)N32)cc1F (single isomer, unassigned) [ID No. 52, (3S,8R*)-4-[[7-[3-Chloro-2-fluoro-6-(tetrazol-1-yl)phenyl]-5-oxo-2,3,8,8a-tetrahydro-1H-indolizine-3-carbonyl]amino]-2-fluoro-benzoic acid] | 0.9 nM | 70.8 nM

More lines, in order of falling IC50 (Factor XIa), values ahead:

Row | IC50 (Factor XIa) | IC50 (human plasma kallikrein) | SMILES
17 | 46 nM | 156 nM | Cn1nncc1-c1ccc(NC(=O)[C@@H]2CCC3CC(c4c(-n5cnnn5)ccc(Cl)c4F)=CC(=O)N32)cc1 (mixture of isomers) [ID No. 71, (3S)-7-[3-Chloro-2-fluoro-6-(tetrazol-1-yl)phenyl]-N-[4-(3-methyltriazol-4-yl)phenyl]-5-oxo-2,3,8,8a-tetrahydro-1H-indolizine-3-carboxamide]
18 | 31.8 nM | 57 nM | Cc1nc(-c2ccc(NC(=O)[C@@H]3CC[C@@H]4CC(c5c(-n6cnnn6)ccc(Cl)c5F)=CC(=O)N43)cc2)no1 (single isomer, unassigned) [ID No. 50]
19 | 7.9 nM | 8 nM | CC1C[C@@H](C(=O)Nc2ccc3ncccc3c2)N2C(=O)C=C(c3c(-n4cnnn4)ccc(Cl)c3F)CC12 (mixture of isomers) [ID No. 82, (3S)-7-[3-Chloro-2-fluoro-6-(tetrazol-1-yl)phenyl]-1-methyl-5-oxo-N-(6-quinolyl)-2,3,8,8a-tetrahydro-1H-indolizine-3-carboxamide]
20 | 2.5 nM | 149 nM | O=C(O)c1ccc(NC(=O)[C@@H]2CCC3CC(c4c(-n5cnnn5)ccc(Cl)c4F)=CC(=O)N32)cc1F (single isomer, unassigned) [ID No. 51, (3S,8aS*)-4-[[7-[3-Chloro-2-fluoro-6-(tetrazol-1-yl)phenyl]-5-oxo-2,3,8,8a-tetrahydro-1H-indolizine-3-carbonyl]amino]-2-fluoro-benzoic acid]
21 | 0.7 nM | 20.4 nM | O=C(Nc1ccc(-c2nnn[nH]2)cc1)[C@@H]1CCC2CC(c3c(-n4cnnn4)ccc(Cl)c3F)=CC(=O)N21 (mixture of isomers) [ID No. 72, (3S)-7-[3-Chloro-2-fluoro-6-(tetrazol-1-yl)phenyl]-5-oxo-N-[4-(1H-tetrazol-5-yl)phenyl]-2,3,8,8a-tetrahydro-1H-indolizine-3-carboxamide]
22 | 0.4 nM | 6.4 nM | O=C(Nc1ccc(-c2nc(=O)o[nH]2)c(F)c1)[C@@H]1CCC2CC(c3c(-n4cnnn4)ccc(Cl)c3F)=CC(=O)N21 (single isomer, unassigned) [ID No. 35, (3S,8aR*)-7-[3-Chloro-2-fluoro-6-(tetrazol-1-yl)phenyl]-N-[3-fluoro-4-(5-oxo-2H-1,2,4-oxadiazol-3-yl)phenyl]-5-oxo-2,3,8,8a-tetrahydro-1H-indolizine-3-carboxamide]
23 | 0.3 nM | 22.2 nM | O=C(Nc1ccc(-c2nc(=O)o[nH]2)cc1)[C@@H]1CCC2CC(c3c(-n4cnnn4)ccc(Cl)c3F)=CC(=O)N21 (mixture of isomers) [ID No. 76, (3S)-7-[3-Chloro-2-fluoro-6-(tetrazol-1-yl)phenyl]-5-oxo-N-[4-(5-oxo-2H-1,2,4-oxadiazol-3-yl)phenyl]-2,3,8,8a-tetrahydro-1H-indolizine-3-carboxamide]

Source: patent US12286429B2, “5-oxo-1,2,3,5,8,8a-hexahydroindolizine-3-carboxamide derivatives useful as a factor XIa inhibitors” (Janssen Pharmaceutica NV, priority 2021, dated 2025)
